Reference: patent publication US20200385371A1 (Propellon Therapeutics Inc., priority 2017, published 2020)
Structures can show the parent of a compound that is named as a salt.

Tests used:
[1] = system: MV4-11 cells; assay: Cell proliferation assay (ATPlite); assay type: cell-based; conditions: Homo sapiens, 120 h; MV4-11 cells, five days; read-out: GI MV411 EC50
Method in brief: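 Cells seeded at 1,000/well in Alpha-MEM with 10% FBS, treated with compound over a 10-point range (top 10 μM) or DMSO. Grown five days at 37° C, 5% CO2; viability by ATPlite luminescence.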

[2] = target: T1, WDR5 (Homo sapiens, UniProt P61964); assay: Surface Plasmon Resonance (SPR) assay; assay type: binding; set-up: Full length WDR5 with an N-terminal His tag and C-terminal AviTag; His tag (N); made in house; host or cells: E. coli; conditions: read-out: SPR Kd
Method in brief: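 Full-length biotinylated WDR5 (N-His, C-AviTag, E. coli) captured (~3000 RU) on streptavidin SA chip; Biacore T200. HBS-EP pH 7.4 plus 5% DMSO running buffer, 40 μl/min.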

[3] = target: T1, WDR5; assay: Fluorescence Polarization (FP) binding assay
Method in brief: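 Displacement of fluorescein-labelled H3 (1-15) (30 nM, with 0.3 μM WDR5) or 9-Ala-FAM (20 nM, with 0.05 μM WDR5) in 80 mM sodium phosphate pH 6.5, 20 mM KCl, 0.008% Triton X-100. FP read at 485/528 nm (H3) or 480/540 nm (9-Ala-FAM); Kdisp from hyperbolic fit, mean of quadruplicates.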

Row | SMILES | EC50 [1] | Kd [2] | IC50 [3]
1 | C[C@H]1CN(c2ncc(-c3c(F)cc(N4CCN(C)[C@@H](C)C4)c(NC(=O)c4ccc(F)cc4C(F)(F)F)c3F)cn2)C[C@H](C)O1 [Example 166, N-(3-(2-((2S,6S)-2,6-dimethylmorpholino)pyrimidin-5-yl)-6-((S)-3,4-dimethylpiperazin-1-yl)-2,4-difluorophenyl)-4-fluoro-2-(trifluoromethyl)benzamide Formic Acid Salt] | 63.6 nM | 0.73 nM | 11.7 nM
2 | C[C@@H]1CN(c2ccc(-c3c(F)cc(N4CCN(C)[C@@H](C)C4)c(NC(=O)c4cn(C)c(=O)cc4C(F)F)c3F)cn2)C[C@H](C)O1 [Example 175, 4-(Difluoromethyl)-N-(3-(6-((2S,6R)-2,6-dimethylmorpholino)pyridin-3-yl)-6-((S)-3,4-dimethylpiperazin-1-yl)-2,4-difluorophenyl)-1-methyl-6-oxo-1,6-dihydropyridine-3-carboxamide] | 255 nM | 1.57 nM | 24.6 nM
3 | CC(C)[C@@H]1CN(c2nccc(-c3c(F)cc(N4CCN(C)[C@@H](C)C4)c(NC(=O)c4c[nH]c(=O)cc4C(F)(F)F)c3F)n2)CCO1 [Example 123, N-(6-((S)-3,4-dimethylpiperazin-1-yl)-2,4-difluoro-3-(2-((R)-2-isopropylmorpholino)pyrimidin-4-yl)phenyl)-6-oxo-4-(trifluoromethyl)-1,6-dihydropyridine-3-carboxamide] | 61.8 nM | 1.68 nM | 14.9 nM
4 | C[C@H]1CN(c2ccc(-c3c(F)cc(N4CCN(C)[C@@H](C)C4)c(NC(=O)c4ccc(F)cc4C(F)F)c3F)cn2)CCO1 [Example 179, 2-(Difluoromethyl)-N-(6-((S)-3,4-dimethylpiperazin-1-yl)-2,4-difluoro-3-(6-((S)-2-methylmorpholino)pyridin-3-yl)phenyl)-4-fluorobenzamide] | 141 nM | 1.59 nM | 20.1 nM
5 | COc1cc(N2CC=C(c3c(F)cc(N4CCN(C)[C@@H](C)C4)c(NC(=O)c4c[nH]c(=O)cc4C(F)F)c3F)C2)ncn1 [Example 74, (S)-4-(difluoromethyl)-N-(6-(3,4-dimethylpiperazin-1-yl)-2,4-difluoro-3-(1-(6-methoxypyrimidin-4-yl)-2,5-dihydro-1H-pyrrol-3-yl)phenyl)-6-oxo-1,6-dihydropyridine-3-carboxamide] | 36.7 nM | 2.12 nM | 16.4 nM
6 | C[C@@H]1CN(c2ccc(-c3c(F)cc(N4CCN(C)[C@@H](C)C4)c(NC(=O)c4c[nH]c(=O)cc4C(F)(F)F)c3F)cn2)C[C@H](C)O1 [Example 170, N-(3-(6-((2S,6R)-2,6-dimethylmorpholino)pyridin-3-yl)-6-((S)-3,4-dimethylpiperazin-1-yl)-2,4-difluorophenyl)-6-oxo-4-(trifluoromethyl)-1,6-dihydropyridine-3-carboxamide] | 32.3 nM | 0.83 nM | 15.6 nM
7 | C[C@H]1CN(c2cc(F)c(C3=CCN(c4ncc(C#N)s4)CC3)c(F)c2NC(=O)c2c[nH]c(=O)cc2C(F)(F)F)CCN1C [Example 98, (S)—N-(3-(1-(5-cyanothiazol-2-yl)-1,2,3,6-tetrahydropyridin-4-yl)-6-(3,4-dimethylpiperazin-1-yl)-2,4-difluorophenyl)-6-oxo-4-(trifluoromethyl)-1,6-dihydropyridine-3-carboxamide] | 97.7 nM | 0.77 nM | 13.1 nM
8 | C[C@H]1CN(c2ncc(-c3c(F)cc(N4CCN(C)[C@@H](C)C4)c(NC(=O)c4c[nH]c(=O)cc4C(F)(F)F)c3F)cn2)C[C@H](C)O1 [Example 87, N-(3-(2-((2S,6S)-2,6-dimethylmorpholino)pyrimidin-5-yl)-6-((S)-3,4-dimethylpiperazin-1-yl)-2,4-difluorophenyl)-6-oxo-4-(trifluoromethyl)-1,6-dihydropyridine-3-carboxamide] | 19.4 nM | 1.47 nM | 9.85 nM
9 | C[C@@H]1CN(c2cc(F)c(-c3ccc4c(c3)OCO4)c(F)c2NC(=O)c2c[nH]c(=O)cc2C(F)(F)F)C[C@H](C)N1C [Example 71, N-(3-(benzo[d][1,3]dioxol-5-yl)-2,4-difluoro-6-((3S,5R)-3,4,5-trimethylpiperazin-1-yl)phenyl)-6-oxo-4-(trifluoromethyl)-1,6-dihydropyridine-3-carboxamide] | 64.4 nM | 1.65 nM | 15.1 nM
10 | CC(C)OC(=O)N1CC=C(c2c(F)cc(N3CCN(C)[C@@H](C)C3)c(NC(=O)c3c[nH]c(=O)cc3C(F)(F)F)c2F)CC1 [Example 39, Isopropyl (S)-4-(4-(3,4-dimethylpiperazin-1-yl)-2,6-difluoro-3-(6-oxo-4-(trifluoromethyl)-1,6-dihydropyridine-3-carboxamido)phenyl)-3,6-dihydropyridine-1(2H)-carboxylate] | 35.4 nM | 1.58 nM | 15.2 nM
11 | COc1cnc(N2CC=C(c3c(F)cc(N4C[C@@H](C)N(C)[C@@H](C)C4)c(NC(=O)c4c[nH]c(=O)cc4C(F)(F)F)c3F)C2)nc1 [Example 139, N-(2,4-difluoro-3-(1-(5-methoxypyrimidin-2-yl)-2,5-dihydro-1H-pyrrol-3-yl)-6-((3S,5R)-3,4,5-trimethylpiperazin-1-yl)phenyl)-6-oxo-4-(trifluoromethyl)-1,6-dihydropyridine-3-carboxamide] | 18.5 nM | 1.65 nM | 12 nM
12 | C[C@H]1CN(c2cc(F)c(C3=CCCN(c4ncc(F)cn4)C3)c(F)c2NC(=O)c2c[nH]c(=O)cc2C(F)F)CCN1C [Example 83, (S)-4-(difluoromethyl)-N-(6-(3,4-dimethylpiperazin-1-yl)-2,4-difluoro-3-(1-(5-fluoropyrimidin-2-yl)-1,2,5,6-tetrahydropyridin-3-yl)phenyl)-6-oxo-1,6-dihydropyridine-3-carboxamide] | 382 nM | 1.15 nM | 15.5 nM
13 | C[C@@H]1CN(c2cc(F)c(C3=CCN(C(=O)OC4(C)CCC4)CC3)c(F)c2NC(=O)c2c[nH]c(=O)cc2C(F)(F)F)C[C@H](C)N1C [Example 144, 1-Methylcyclobutyl 4-(2,6-difluoro-3-(6-oxo-4-(trifluoromethyl)-1,6-dihydropyridine-3-carboxamido)-4-((3S,5R)-3,4,5-trimethylpiperazin-1-yl)phenyl)-5,6-dihydropyridine-1(2H)-carboxylate] | 11.4 nM | 1.53 nM | 12.7 nM
14 | C[C@@H]1CN(c2ncc(-c3c(F)cc(N4CCN(C)[C@@H](C)C4)c(NC(=O)c4cn(C)c(=O)cc4C(F)(F)F)c3F)cn2)C[C@@H](C)O1 [Example 165, N-(3-(2-((2R,6R)-2,6-dimethylmorpholino)pyrimidin-5-yl)-6-((S)-3,4-dimethylpiperazin-1-yl)-2,4-difluorophenyl)-1-methyl-6-oxo-4-(trifluoromethyl)-1,6-dihydropyridine-3-carboxamide] | 169 nM | 0.82 nM | 13.6 nM
15 | C[C@H]1CN(c2cc(F)c(-c3cnc(N4C[C@H]5CC[C@@H](C4)O5)nc3)c(F)c2NC(=O)c2c[nH]c(=O)cc2C(F)(F)F)CCN1C [Example 89, N-(3-(2-((1R,5S)-8-oxa-3-azabicyclo[3.2.1]octan-3-yl)pyrimidin-5-yl)-6-((S)-3,4-dimethylpiperazin-1-yl)-2,4-difluorophenyl)-6-oxo-4-(trifluoromethyl)-1,6-dihydropyridine-3-carboxamide] | 30.8 nM | 0.83 nM | 12.5 nM
16 | C[C@@H]1CN(c2cc(F)c(-c3cnc(N4C[C@H](C)O[C@@H](C)C4)nc3)c(F)c2NC(=O)c2c[nH]c(=O)cc2C(F)(F)F)C[C@H](C)N1C [Example 88, N-(3-(2-((2S,6S)-2,6-dimethylmorpholino)pyrimidin-5-yl)-2,4-difluoro-6-((3S,5R)-3,4,5-trimethylpiperazin-1-yl)phenyl)-6-oxo-4-(trifluoromethyl)-1,6-dihydropyridine-3-carboxamide] | 9.55 nM | 2.49 nM | 13.8 nM
17 | C[C@H]1CN(c2cc(F)c(-c3ccc4c(c3)OCCO4)c(F)c2NC(=O)c2c[nH]c(=O)cc2C(F)(F)F)CCN1C [Example 185, (S)—N-(3-(2,3-dihydrobenzo[b][1,4]dioxin-6-yl)-6-(3,4-dimethylpiperazin-1-yl)-2,4-difluorophenyl)-6-oxo-4-(trifluoromethyl)-1,6-dihydropyridine-3-carboxamide] | 170 nM | 1.29 nM | 26.5 nM
18 | C[C@@H]1CN(c2ncc(-c3c(F)cc(N4CCN(C)[C@@H](C)C4)c(NC(=O)c4cn(C)c(=O)cc4C(F)F)c3F)cn2)C[C@H](C)O1 [Example 161, 4-(Difluoromethyl)-N-(3-(2-((2S,6R)-2,6-dimethylmorpholino)pyrimidin-5-yl)-6-((S)-3,4-dimethylpiperazin-1-yl)-2,4-difluorophenyl)-1-methyl-6-oxo-1,6-dihydropyridine-3-carboxamide] | 79.3 nM | 1.1 nM | 11.9 nM
